Assay results: ChEMBL document CHEMBL3593229, “Identification of a potent 5-phenyl-thiazol-2-ylamine-based inhibitor of FLT3 with activity against drug resistance-conferring point mutations” (Eur J Med Chem, 2015)

What was measured:
[1] = test system: Receptor-type tyrosine-protein kinase FLT3 (Homo sapiens), P36888 [UNDEFINED MUTATION]; details: MOLM-13
Description: Inhibition of FLT3 ITD heterozygous mutant in human MOLM-13 cells assessed as cell growth inhibition after 72 hrs by MTS assay

[2] = molecular target: T1, Receptor-type tyrosine-protein kinase FLT3 (Homo sapiens, UniProt P36888); assay: biochemical; assay type: cell-based, Sf9
T1 sequence (P36888 whole entry): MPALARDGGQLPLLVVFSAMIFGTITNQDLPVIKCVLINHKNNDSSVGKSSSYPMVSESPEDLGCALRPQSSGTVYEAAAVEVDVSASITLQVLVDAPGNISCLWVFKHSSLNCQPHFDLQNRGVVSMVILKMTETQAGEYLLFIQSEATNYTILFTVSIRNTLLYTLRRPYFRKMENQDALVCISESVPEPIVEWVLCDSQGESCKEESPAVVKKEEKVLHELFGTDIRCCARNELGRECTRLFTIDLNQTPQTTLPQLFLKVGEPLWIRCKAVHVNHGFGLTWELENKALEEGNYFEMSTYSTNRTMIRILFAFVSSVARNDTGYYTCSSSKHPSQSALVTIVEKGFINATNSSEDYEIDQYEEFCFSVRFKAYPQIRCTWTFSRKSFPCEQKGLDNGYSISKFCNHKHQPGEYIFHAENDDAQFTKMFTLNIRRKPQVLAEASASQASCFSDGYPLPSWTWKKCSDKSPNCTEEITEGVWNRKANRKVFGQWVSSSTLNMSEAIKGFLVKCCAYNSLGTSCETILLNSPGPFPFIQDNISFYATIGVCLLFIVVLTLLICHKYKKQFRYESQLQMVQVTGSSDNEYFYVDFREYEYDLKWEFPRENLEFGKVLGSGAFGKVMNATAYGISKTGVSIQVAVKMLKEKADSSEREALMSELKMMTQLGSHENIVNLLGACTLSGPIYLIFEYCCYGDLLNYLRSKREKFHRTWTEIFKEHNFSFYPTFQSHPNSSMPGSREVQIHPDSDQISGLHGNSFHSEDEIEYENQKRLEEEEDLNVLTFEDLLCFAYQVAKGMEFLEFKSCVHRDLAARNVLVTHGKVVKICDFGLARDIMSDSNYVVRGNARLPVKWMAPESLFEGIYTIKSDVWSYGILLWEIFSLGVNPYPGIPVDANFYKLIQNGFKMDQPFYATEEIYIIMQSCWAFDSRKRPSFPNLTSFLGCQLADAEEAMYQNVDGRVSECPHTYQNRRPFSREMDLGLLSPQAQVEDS
Description: Inhibition of wild type GST-tagged FLT3 kinase domain (Y567 to S993) (unknown origin) expressed in baculovirus infected insect Sf9 cells using Her2 peptide as substrate after 4 hrs by Kinase-Glo assay

[3] = Oral bioavailability in Sprague-Dawley rat at 10 mg/kg; assay type: ADME, organism-based; details: in vivo
[4] = molecular target: Vascular endothelial growth factor receptor 2 (Homo sapiens, UniProt P35968); assay: biochemical; assay type: cell-based, Sf9
Description: Inhibition of recombinant GST-tagged VEGFR2 kinase domain (V789 to V1356) (unknown origin) expressed in insect Sf9 cells using polyGlu4:Tyr peptide as substrate after 120 mins by Kinase-Glo assay

Aurora kinase A = molecular target: T2, Aurora kinase A (Homo sapiens, UniProt O14965); assay: biochemical
T2 sequence (O14965 whole entry): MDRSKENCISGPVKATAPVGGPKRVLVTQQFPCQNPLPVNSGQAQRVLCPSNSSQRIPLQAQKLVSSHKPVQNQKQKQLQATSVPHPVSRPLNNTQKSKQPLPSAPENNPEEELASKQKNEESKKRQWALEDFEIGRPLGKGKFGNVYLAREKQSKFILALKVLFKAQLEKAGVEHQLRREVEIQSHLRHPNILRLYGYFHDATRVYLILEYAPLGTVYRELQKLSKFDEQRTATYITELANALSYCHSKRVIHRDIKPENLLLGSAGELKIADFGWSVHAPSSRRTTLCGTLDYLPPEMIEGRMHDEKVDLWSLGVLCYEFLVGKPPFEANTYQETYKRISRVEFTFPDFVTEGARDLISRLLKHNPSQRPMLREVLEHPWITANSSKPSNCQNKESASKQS
Description: Inhibition of recombinant GST-tagged Aurora-A kinase domain (S123 to S401) (unknown origin) expressed in insect Sf9 cells using tetra(LRRASLG) peptide as substrate after 90 mins by Kinase-Glo assay

[5] = AUC (0 to infinity) in Sprague-Dawley rat at 10 mg/kg, po; assay type: ADME, organism-based; design: dose 10 mg/kg, time infinity, route oral; details: in vivo

Vascular endothelial growth factor receptor 2, sequence (P35968 whole entry): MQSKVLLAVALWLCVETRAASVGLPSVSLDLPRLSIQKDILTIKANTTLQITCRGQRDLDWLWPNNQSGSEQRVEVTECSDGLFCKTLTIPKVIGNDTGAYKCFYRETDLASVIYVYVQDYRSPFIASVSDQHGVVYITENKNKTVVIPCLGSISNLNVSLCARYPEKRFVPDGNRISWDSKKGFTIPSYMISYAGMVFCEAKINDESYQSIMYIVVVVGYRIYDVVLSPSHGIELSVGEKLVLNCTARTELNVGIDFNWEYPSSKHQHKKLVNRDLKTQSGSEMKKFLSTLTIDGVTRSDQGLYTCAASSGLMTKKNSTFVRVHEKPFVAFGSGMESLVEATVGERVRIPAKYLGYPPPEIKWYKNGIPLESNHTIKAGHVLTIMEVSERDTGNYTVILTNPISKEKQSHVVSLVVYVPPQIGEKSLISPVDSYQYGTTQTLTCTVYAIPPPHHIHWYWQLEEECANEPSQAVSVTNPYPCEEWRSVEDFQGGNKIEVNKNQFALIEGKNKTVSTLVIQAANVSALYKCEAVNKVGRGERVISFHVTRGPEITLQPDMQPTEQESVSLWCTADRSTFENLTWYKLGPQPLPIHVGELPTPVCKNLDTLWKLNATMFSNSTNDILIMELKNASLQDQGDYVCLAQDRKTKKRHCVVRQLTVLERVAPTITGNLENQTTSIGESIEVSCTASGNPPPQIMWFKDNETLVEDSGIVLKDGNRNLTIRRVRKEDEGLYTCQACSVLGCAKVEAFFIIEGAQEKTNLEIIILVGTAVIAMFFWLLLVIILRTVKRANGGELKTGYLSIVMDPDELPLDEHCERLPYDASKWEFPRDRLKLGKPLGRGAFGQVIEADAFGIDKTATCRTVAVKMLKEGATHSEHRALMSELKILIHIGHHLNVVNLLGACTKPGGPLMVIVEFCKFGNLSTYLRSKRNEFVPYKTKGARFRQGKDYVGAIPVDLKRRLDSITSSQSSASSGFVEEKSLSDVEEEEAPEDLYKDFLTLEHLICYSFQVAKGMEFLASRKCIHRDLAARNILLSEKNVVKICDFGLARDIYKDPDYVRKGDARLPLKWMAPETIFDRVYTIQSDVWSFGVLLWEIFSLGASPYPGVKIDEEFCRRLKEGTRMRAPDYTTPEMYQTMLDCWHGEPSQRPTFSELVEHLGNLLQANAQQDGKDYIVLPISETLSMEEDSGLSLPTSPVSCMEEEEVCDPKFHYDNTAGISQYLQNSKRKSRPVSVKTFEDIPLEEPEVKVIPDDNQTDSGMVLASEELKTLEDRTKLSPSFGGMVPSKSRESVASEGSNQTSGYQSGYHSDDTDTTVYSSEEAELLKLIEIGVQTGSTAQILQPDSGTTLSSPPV

| SMILES | GI50 [1] [nM] | IC50 [2] [nM] | bioavailability [3] [%] | IC50 [4] [nM] | IC50 (Aurora kinase A) [nM] | AUC(0-inf) [5] [ng·h/mL] |
| --- | --- | --- | --- | --- | --- | --- |
| Cc1nc(Nc2ncc(-c3ccc(NC(=O)Nc4ccccc4)cc3)s2)cc(N2CCC(N)CC2)n1 | 16 | 73 |  | 53 | 150 |  |
| CCN1CCN(c2cc(Nc3ncc(-c4ccc(NC(=O)c5ccccc5)cc4)s3)nc(C)n2)CC1 | 19 | 850 |  | > 1000 | 140 |  |
| Cc1nc(Nc2ncc(-c3ccc(NC(=O)Nc4cccc(Cl)c4)cc3)s2)cc(N2CCNCC2)n1 | 24 | 20 |  | 31 | 270 |  |
| Cc1cc(NC(=O)Nc2ccc(-c3cnc(NC(=O)c4ccc(OCCN5CCOCC5)cc4)s3)cc2)no1 | 210 | 580 |  | 370 | 25 |  |
| CCN1CCN(c2cc(Nc3ncc(-c4ccc(NS(=O)(=O)c5ccccc5)cc4)s3)nc(C)n2)CC1 | 140 | 520 |  | 170 | 43 |  |
| Cc1nc(Nc2ncc(-c3ccc(NC(=O)Nc4ccccc4)cc3)s2)cc(N2CCN(C)CC2)n1 | 24 | 79 |  | 160 | > 10000 |  |

The next compounds have a lower GI50 [1] than those just listed; values first:

| GI50 [1] [nM] | IC50 [2] [nM] | bioavailability [3] [%] | IC50 [4] [nM] | IC50 (Aurora kinase A) [nM] | AUC(0-inf) [5] [ng·h/mL] | SMILES |
| --- | --- | --- | --- | --- | --- | --- |
| 3 |  |  |  |  |  | CCc1cc(NC(=O)Nc2ccc(-c3cnc(Nc4cc(N5CCC(N)C5)nc(C)n4)s3)cc2)no1 (centres undefined) |
| 3 | 49 | 18 | 10 | 41 | 632 | CCc1cc(NC(=O)Nc2ccc(-c3cnc(Nc4cc(N5CCN(C)CC5)nc(C)n4)s3)cc2)no1 |
| 3 | 83 |  | 120 | 320 | 66 | CCN1CCN(c2cc(Nc3ncc(-c4ccc(NC(=O)OCc5ccccc5)cc4)s3)nc(C)n2)CC1 |
| 2 | 33 |  | 15 | 36 |  | CCN1CCN(c2cc(Nc3ncc(-c4ccc(NC(=O)Nc5cc(C6CC6)on5)cc4)s3)nc(C)n2)CC1 |
| 9 | 320 |  | 43 | 95 |  | CCN1CCN(c2cc(Nc3ncc(-c4ccc(NC(=O)Nc5ccc(Cl)cc5)cc4)s3)nc(C)n2)CC1 |
| 14 | 22 |  | 55 | 38 |  | CCCCc1cc(NC(=O)Nc2ccc(-c3cnc(Nc4cc(N5CCN(C)CC5)nc(C)n4)s3)cc2)no1 |
| 1 | 10 | 10 | 15 | 56 | 313 | Cc1nc(Nc2ncc(-c3ccc(NC(=O)Nc4cc(C)on4)cc3)s2)cc(N2CCN(C)CC2)n1 |
